This assay relates to CTL F2. As to the kind of experiment: Peptide recognition assay: 51Cr release lysis by CTL F2 of peptide-pulsed autologous EBV-B cells. Conditions: for lysis by CTL F2 of autologous EBV-B cells incubated with peptide (first screening of 16 amino-acid long peptides, FIG. 3A): 1 μg/ml of each peptide, E:T ratio 5:1, chromium release after 4 h; for EC50: CTL F2, E:T 5:1, 4 h chromium release (FIG. 3B), read-out: peptide concentration giving half maximal lysis of autologous EBV-B target cells; for recognition by CTL F2 of peptides of different lengths (peptide titration, FIG. 3B): autologous EBV-B targets, 3-fold peptide dilutions, HPLC purified peptides; for recognition by CTL F2 of peptides of different lengths (peptide titration, FIG. 3B) / recognition by CTL F2 of targets pulsed with peptides modified at the C-terminus (FIG. 3C): E:T 5:1, 4 h; for recognition by CTL F2 of targets pulsed with peptides modified at the C-terminus (FIG. 3C): very high and most probably not physiological concentration of peptide. In kind it is cell-based, human.

“FPVIFGKASESLKMIF (listed as Homo sapiens) [16-mer MAGE-A4 peptide, amino acids 148-163]”: the “lysis by CTL F2 of autologous EBV-B cells incubated with peptide (first screening of 16 amino-acid long peptides, FIG. 3A)” value is “scored positive”.

As to SESLKMIF, the EC50 is 1 nM and the “recognition by CTL F2 of peptides of different lengths (peptide titration, FIG. 3B)” value is reported as “scored positive”. On to “SESLKMIFG (listed as Homo sapiens) [MAGE-A4 nonapeptide]”, for which the “recognition by CTL F2 of peptides of different lengths (peptide titration, FIG. 3B)” value is given as “not recognized”. As to SESLKMIFGI, the EC50 is 1 nM and the “recognition by CTL F2 of peptides of different lengths (peptide titration, FIG. 3B)” value is given as “scored positive”. As to “SESLKMIFGIDVKEVD (listed as Homo sapiens) [16-mer MAGE-A4 peptide, amino acids 156-171]”, the “lysis by CTL F2 of autologous EBV-B cells incubated with peptide (first screening of 16 amino-acid long peptides, FIG. 3A)” value was “scored positive”. Consider “SESLKMIFI (listed as Homo sapiens) [nonapeptide with C-terminal G replaced by I]”, for which the “recognition by CTL F2 of targets pulsed with peptides modified at the C-terminus (FIG. 3C)” value was “recognized”.

Take “SESLKMIFL (listed as Homo sapiens) [nonapeptide with C-terminal G replaced by L]”: the “recognition by CTL F2 of targets pulsed with peptides modified at the C-terminus (FIG. 3C)” value is listed as “recognized”.

(Values after patent US7311914B2, “MAGE-A4 antigenic peptides and uses thereof” (Ludwig Institute for Cancer Research, priority 2002, dated 2007).)
